Data on 32 molecules can be found in patent US6020342A, “Fused imidazo[1,2-A]pyridines” (Shinnippon Pharmaceutical, Inc., priority 1995, dated 2000).

In data set [1] the target is T1, H^+ /K^+ -ATPase (Sus scrofa, UniProt P19156).
T1 construct: a microsome fraction prepared from porcine gastric mucosa was used as a standard enzyme; from tissue; host or cells: porcine gastric mucosa, microsome fraction
The experiment in a line: Inhibitory Action on H^+ /K^+ -ATPase Activity. It counts as biochemical. Conditions: microsome fraction from porcine gastric mucosa, pH7.4, 37° C., 30 min preincubation, 15 min reaction. On the procedure: Inhibitory Action on H^+ /K^+ -ATPase Activity
According to the method of Hongo et al. [The Japanese Journal of Pharmacology, 52, p295, (1990)], a microsome fraction prepared from porcine gastric mucosa was used as a standard enzyme. The standard enzyme (10-20lig protein) and the test compound (0.1-100 μM) dissolved in dimethylsulfoxide was incubated at 37° C. for 30 minutes in the 50 mM Tris-acetate buffer (pH7.4, containing 2 mM magnesium chloride, 5 mM potassium chloride). The enzyme reaction was started by adding adenosinetriphosphate (ATP). Tris at the final concentration of 2 mM, and the reaction was kept at 37° C. for 15 minutes. The reaction was stopped by adding chilled 10% trichloroacetic acid. Inorganic phosphate released during the reaction was calorimetrically determined according to the method of Fiske-Subbarow [The Journal of Biological Chemistry, 66, p375, (1925)]. H^+ /K^+ -ATPase activity was determined by the difference of the enzyme activities under the conditions with or without potassium chloride. The inhibitory activities of test compounds were determined as the 50% inhibitory concentration (IC50 value) from reaction-concentration curve, and the results are shown in Table 3.

The test system of data set [2] is gastric acid secretion. Description: Inhibition of Gastric Acid Secretion Observed Under Acute Fistula Method. In kind it is in vivo, male Wistar rats. Particulars: Rattus norvegicus; 30 mg/kg intraduodenally, rats, histamine 10 mg/kg s.c., cumulative 2 h. On the procedure:
Inhibition of Gastric Acid Secretion Observed Under Acute Fistula Method
Male Wistar rats (6-8 weeks) fasted for 24 hours (water ad libitum) were used. The rats were anesthetized by intraperitoneal administration of 1.25 g/kg of urethane. The abdomen was incised, and acute gastric fistula was connected to the stomach. Two ml of saline was injected into the stomach, and recovered every 20 minutes. The gastric acid secretion was determined by titrating of gastric juice by 150 mM sodium hydroxide up to pH7.0 using an autotitrator. Test compounds (30 mg/kg) suspended in a 0.5% aqueous sodium carboxymethylcellulose (CMC-Na) solution were administered intraduodenally. After 1 hour, gastric acid secretion was stimulated by subcutaneous administration of histamine dihydrochloride dissolved in saline (10 mg/kg). Inhibition (%) of gastric acid secretion was determined by calculating cumulative amount of the acid secretion during two hours after histamine stimulation and then comparing the cumulative amount with that in the control group. In the control group, only 0.5% aqueous CMC-Na solution was administered intraduodenally.

Data set [3] has as its system gastric acid secretion. The experiment in a line: Inhibition of Gastric Acid Secretion Observed Under Stomach Perfusion Method. It counts as in vivo, male Sprague Dawrey rats. Conditions: Rattus norvegicus, ip, 1 h; rats, histamine i.v. 8 mg/kg/hr, inhibition one hour after administration (1-10 mg/kg, "intrapenetorially"); read-out: ID50 (dose showing 50% inhibition of acid secretion). On the procedure: Inhibition of Gastric Acid Secretion Observed Under Stomach Perfusion Method
Male Sprague Dawrey rats (6-7weeks) fasted for 24 hours were used (water ad libitum). The rats were anesthetized by intraperitoneal administration of 1.25 g/kg of urethane. The abdomen was incised, and gastral cavity was perfused with saline during experiment. The perfusate was titrated by 10 mM sodium hydroxide up to pH5.5 using an autotitrator in accordance with Stat-method. Gastric acid secretion was stimulated by intravenous administration of histamine dihydrochloride (8 mg/kg/hr). Two hours after histamine stimulation, a test compound 1-10 mg/kg) was administered intrapenetorially. The test compound was mixed with small amount of polysorbate-80, and the mixture was suspended in saline. The test compound was evaluated using ID50 (dose showing 50% inhibition of acid secretion) which was calculated based on inhibition of the acid secretion observed one hour after administration of the compound.

On the set-up of data set [4]: species or system male ICR mice. Conditions: mouse, in vivo, po, 10080 min. On the procedure:
Male ICR mice (6 weeks, 3 mice per group) fasted for 16 hours were used ad libitum). A test compound suspended in 5% aqueous gum arabic solution was orally administered. After administration, mortality of the animals observed during 7 days and approximate lethal dose was determined.

Each structure is given as a SMILES string. A value given as a limit tells only on which side of the number the result lay.

T1 sequence (P19156 2-1034 limits assumed): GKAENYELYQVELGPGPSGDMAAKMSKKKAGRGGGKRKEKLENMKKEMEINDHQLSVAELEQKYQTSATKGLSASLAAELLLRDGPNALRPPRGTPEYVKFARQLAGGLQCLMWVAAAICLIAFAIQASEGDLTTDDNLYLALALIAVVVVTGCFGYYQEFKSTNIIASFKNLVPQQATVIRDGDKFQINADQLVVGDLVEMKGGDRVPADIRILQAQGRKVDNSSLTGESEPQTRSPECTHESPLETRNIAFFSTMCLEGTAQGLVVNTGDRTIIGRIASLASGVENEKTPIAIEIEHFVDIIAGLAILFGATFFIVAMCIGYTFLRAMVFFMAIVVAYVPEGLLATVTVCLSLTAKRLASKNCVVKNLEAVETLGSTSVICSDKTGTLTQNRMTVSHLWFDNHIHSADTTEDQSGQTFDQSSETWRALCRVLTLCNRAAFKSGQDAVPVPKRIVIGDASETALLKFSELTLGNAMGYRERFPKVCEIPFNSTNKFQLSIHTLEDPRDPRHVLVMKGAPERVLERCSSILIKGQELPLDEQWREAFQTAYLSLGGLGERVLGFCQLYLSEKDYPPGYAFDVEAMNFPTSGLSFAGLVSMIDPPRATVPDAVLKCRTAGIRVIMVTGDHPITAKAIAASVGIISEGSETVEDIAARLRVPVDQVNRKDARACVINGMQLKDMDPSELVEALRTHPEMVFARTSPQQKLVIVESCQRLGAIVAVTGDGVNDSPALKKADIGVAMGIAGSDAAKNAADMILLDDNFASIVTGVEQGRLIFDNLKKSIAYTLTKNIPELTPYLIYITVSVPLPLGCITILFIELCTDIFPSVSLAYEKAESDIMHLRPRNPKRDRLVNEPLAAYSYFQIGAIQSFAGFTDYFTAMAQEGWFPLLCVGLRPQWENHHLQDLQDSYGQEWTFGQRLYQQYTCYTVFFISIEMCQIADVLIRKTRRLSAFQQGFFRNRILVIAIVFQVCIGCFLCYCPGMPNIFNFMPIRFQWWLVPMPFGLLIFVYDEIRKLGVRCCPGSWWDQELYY
T1 sequence (P18434 whole entry partner): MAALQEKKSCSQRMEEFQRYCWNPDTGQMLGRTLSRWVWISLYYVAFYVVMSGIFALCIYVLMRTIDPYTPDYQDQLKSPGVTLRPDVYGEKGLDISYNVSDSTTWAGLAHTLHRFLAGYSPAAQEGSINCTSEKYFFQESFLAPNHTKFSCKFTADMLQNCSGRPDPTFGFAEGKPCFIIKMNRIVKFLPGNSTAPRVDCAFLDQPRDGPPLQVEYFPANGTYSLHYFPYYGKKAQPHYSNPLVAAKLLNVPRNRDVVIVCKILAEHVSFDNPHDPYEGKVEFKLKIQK

`Cc1ccccc1-c1nc2c3c(Cl)cccc3ccn2c1N` [Compound 7, 3-Amino-10-chloro-2-(2-methylphenyl)imidazo[2,1-a]isoquinoline] registered an IC50 in data set [1] of 8 µM. Also, the inhibition in vivo at 30 mg/kg in data set [2] came to 74.9%.

In data set [1], `Cc1ccc2ccn3c(N)c(-c4ccccc4C)nc3c2c1` [Compound 10, 3-Amino-9-methyl-2-(2-methylphenyl)imidazo[2,1-a]isoquinoline] had an IC50 of 20 µM. In data set [3], the ED50 was found to be 4.2 mg/kg.

For `CCCc1cc2ccccc2c2nc(-c3ccccc3C)c(N)n12` [Compound 12], the IC50 in data set [1] worked out at 12.5 µM. Moreover, in data set [3], the ED50 worked out at 7.2 mg/kg.

Consider `COc1cn2c(N)c(-c3ccccc3C)nc2c2ccccc12` [Compound 24, 3-Amino-6-methoxy-2-(2-methylphenyl)imidazo[2,1-a]isoquinoline], for which the IC50 in data set [1] stood at 13.5 µM. Besides, the ED50 in data set [3] came to 5.4 mg/kg.

For `Cc1ccccc1-c1nc2c3cc(OC(=O)C(C)C)ccc3ccn2c1N` [Compound 43, 3-Amino-9-isobutyryloxy-2-(2-methylphenyl)imidazo[2,1-a]isoquinoline], in data set [3], the ED50 amounted to 7 mg/kg.

In the case of `COc1ccc2cc(C)n3c(N)c(-c4ccccc4C)nc3c2c1` [Compound 56, 3-Amino-9-methoxy-5-methyl-2-(2-methylphenyl)imidazo[2,1-a]isoquinoline], in data set [3], the ED50 was found to be 6.5 mg/kg.

In turn, `Cc1sccc1-c1nc2c3ccccc3ccn2c1N` [Compound 78, 3-Amino-2-(2-methyl-3-thienyl)imidazo[2,1-a]isoquinoline] showed an IC50 in data set [1] of 17 µM. Further, the ED50 in data set [3] worked out at 1.6 mg/kg.

In data set [1], `Cc1cc(-c2nc3c4ccccc4ccn3c2N)c(C)o1` [Compound 91, 3-Amino-2-(2,5-dimethyl-3-furyl)imidazo[2,1-a]isoquinoline] displayed an IC50 of 5.6 µM. Also, in data set [4], the Approximate lethal dose is > 2,000 mg/kg.

Take `Cn1cccc1-c1nc2c3ccccc3ccn2c1N` [Compound 94, 3-Amino-2-(1-methyl-2-pyrrolyl)imidazo[2,1-a]isoquinoline]: the half-inhibitory concentration (IC50) in data set [1] was 3 µM. Besides, the ED50 in data set [3] worked out at 5.8 mg/kg.

In the case of `Cc1ccccc1-c1nc2n(c1N)CCc1ccccc1-2` [Compound 96, 3-Amino-2-(2-methylphenyl)-5,6-dihydroimidazo[2,1-a]isoquinoline], half-maximal inhibition in data set [1] (IC50) required 17.5 µM. In addition, the ED50 in data set [3] came to 8.8 mg/kg.

In the case of `COc1ccc2c(c1)-c1nc(-c3ccccc3C)c(N)n1CC2` [Compound 103, 3-Amino-9-methoxy-2-(2-methylphenyl)-5,6-dihydroimidazo[2,1-a]isoquinoline], the ED50 in data set [3] worked out at 7.4 mg/kg.

Consider `CCCN(CC)c1c(-c2cccc(C)c2)nc2c3ccccc3ccn12` [Compound 211, 3-(N-Ethyl-N-propylamino)-2-(3-methylphenyl)imidazo[2,1-a]isoquinoline], for which it took 2.4 µM to reach half-maximal inhibition in data set [1] (IC50).

As to `CCCN(CC)c1c(-c2sccc2C)nc2c3ccccc3ccn12` [Compound 212, 3-(N-Ethyl-N-propylamino)-2-(3-methyl-2-thienyl)imidazo[2,1-a]isoquinoline], the IC50 in data set [1] was 1.9 µM. Also, the Approximate lethal dose in data set [4] is given as > 2,000 mg/kg.

In the case of `Cc1ccccc1-c1nc2c3ccccc3ccn2c1N1CCCCC1` [Compound 217, 2-(2-Methylphenyl)-3-piperidinoimidazo[2,1-a]isoquinoline], inhibition in data set [1] was half-maximal at 4.7 µM (IC50). For the same molecule, in data set [4], the Approximate lethal dose was > 2,000 mg/kg.

Regarding `CCN(Cc1ccc(C)cc1)c1c(-c2ccccc2C)nc2c3ccccc3ccn12` [Compound 219, 3-[N-Ethyl-N-(4-methylbenzyl)amino]-2-(2-methylphenyl)imidazo[2,1-a]isoquinoline], the IC50 in data set [1] is 3.6 µM.

Consider `CCc1ccccc1-c1nc2c3ccccc3ccn2c1N=Cc1ccc(C)cc1` [Compound 226, 2-(2-Ethylphenyl)-3-(4-methylbenzylideneamino)imidazo[2,1-a]isoquinoline], for which the IC50 in data set [1] amounted to 1.9 µM.

Molecule `Cc1cc2sccc2c2nc(-c3ccccc3)c(N)n12` [Compound 230, 3-Amino-5-methyl-2-phenylimidazo[1,2-a]thieno[3,2-c]pyridine] returned an IC50 in data set [1] of 20 µM. Moreover, the ED50 in data set [3] stood at 6.2 mg/kg.

As to `Nc1c(-c2ccccc2Cl)nc2c3ccsc3ccn12` [Compound 232, 3-Amino-2-(2-chlorophenyl)imidazo[1,2-a]thieno[3,2-c]pyridine], inhibition in data set [1] was half-maximal at 17 µM (IC50). Moreover, the ED50 in data set [3] stood at 3.2 mg/kg.

The molecule `Cc1ccccc1-c1nc2c3ccsc3ccn2c1N` [Compound 234, 3-Amino-2-(2-methylphenyl)imidazo[1,2-a]thieno[3,2-c]pyridine] displayed an IC50 in data set [1] of 7.6 µM. Also, the ED50 in data set [3] came out at 1.8 mg/kg.

In the case of `CCc1cc2sccc2c2nc(-c3ccccc3C)c(N)n12` [Compound 238, 3-Amino-5-ethyl-2-(2-methylphenyl)imidazo[1,2-a]thieno[3,2-c]pyridine], in data set [1], inhibition was half-maximal at 2.9 µM (IC50).

Regarding `Cc1ccccc1-c1nc2c3ccsc3c(C)c(C)n2c1N` [Compound 239, 3-Amino-5,6-dimethyl-2-(2-methylphenyl)imidazo[1,2-a]thieno[3,2-c]pyridine], in data set [1], the IC50 was 26 µM.

In data set [1], `COc1ccccc1-c1nc2c3ccsc3cc(C)n2c1N` [Compound 245, 3-Amino-2-(2-methoxyphenyl)-5-methylimidazo[1,2-a]thieno[3,2-c]pyridine] returned an IC50 of 9 µM.

Molecule `Cc1cc(Cl)ccc1-c1nc2c3ccsc3cc(C)n2c1N` [Compound 248, 3-Amino-2-(4-chloro-2-methylphenyl)-5-methylimidazo[1,2-a]thieno[3,2-c]pyridine] had an IC50 in data set [1] of 4.7 µM.

On to `Cc1sccc1-c1nc2c3ccsc3cc(C)n2c1N` [Compound 255, 3-Amino-5-methyl-2-(2-methyl-3-thienyl)imidazo[1,2-a]thieno[3,2-c]pyridine], for which the IC50 in data set [1] turned out to be 6.6 µM. Moreover, in data set [3], the ED50 worked out at 1 mg/kg.

`Cc1cc(-c2nc3c4ccsc4ccn3c2N)c(C)s1` [Compound 264, 3-Amino-2-(2,5-dimethyl-3-thienyl)imidazo[1,2-a]thieno[3,2-c]pyridine] displayed an IC50 in data set [1] of 1.2 µM.

On to `Cn1cccc1-c1nc2c3ccsc3ccn2c1N` [Compound 275], for which the IC50 in data set [1] was determined as 24 µM.

`Cc1ccccc1-c1nc2c3ccn(C)c3ccn2c1N` [Compound 291, 3-Amino-7-methyl-2-(2-methylphenyl)imidazo[1,2-a]pyrrolo[3,2-c]pyridine] gave an IC50 in data set [1] of 4.8 µM. The ED50 in data set [3] turned out to be 6.4 mg/kg.

Regarding `Cc1ccccc1-c1nc2c3ccn(Cc4ccccc4)c3ccn2c1N` [Compound 292, 3-Amino-7-benzyl-2-(2-methylphenyl)imidazo[1,2-a]pyrrolo[3,2-c]pyridine], it took 8.8 µM to reach half-maximal inhibition in data set [1] (IC50).

In data set [1], `Cc1ccccc1-c1nc2c3sccc3ccn2c1N` [Compound 310, 3-Amino-2-(2-methylphenyl)imidazo[1,2-a]thieno[2,3-c]pyridine] registered an IC50 of 26 µM. Also, the ED50 in data set [3] came out at 3 mg/kg. Besides, in data set [4], the Approximate lethal dose was > 2,000 mg/kg.

`Cc1ccccc1-c1nc2c3sccc3cc(C)n2c1N` [Compound 311, 3-Amino-5-methyl-2-(2-methylphenyl)imidazo[1,2-a]thieno[2,3-c]pyridine] registered an IC50 in data set [1] of 8 µM.

For `CCNc1c(-c2ccccc2C)nc2c3ccsc3ccn12` [Compound 340, 3-Ethylamino-2-(2-methylphenyl)imidazo[1,2-a]thieno[3,2-c]pyridine], the IC50 in data set [1] was found to be 33 µM. In addition, in data set [3], the ED50 amounted to 4.9 mg/kg.

On to `CCCN(CC)c1c(-c2ccccc2C)nc2c3sccc3ccn12` [Compound 356, 3-(N-Ethyl-N-propylamino)-2-(2-methylphenyl)imidazo[1,2-a]thieno[2,3-c]pyridine], for which half-maximal inhibition in data set [1] (IC50) was put at 8.4 µM.
